Results reported in ChEMBL document CHEMBL1129616, “Synthesis and evaluation of novel thymidine analogs as antitumor and antiviral agents” (J Med Chem, 1996).

Test system: SV-28
Assay: Compound was tested for its effect on (target DNA or RNA) cell plating efficiency at 25 uM after a 24 hr exposure (the SV-28 cell has a plating efficiency between 50 and 60%)
Type: functional, Cricetulus griseus

**Q.** `CCCCCCCCCCCCCCCC(=O)CC[N+](C)(C)CCOCn1cc(C)c(=O)[nH]c1=O.[I-]` was tested. Which Cell plating efficiency did it give?
**A.** Its Cell plating efficiency is 47%.
